According to patent publication US6974823B2, “Hydantoin derivative compounds, pharmaceutical compositions, and methods of using same” (GPI NIL Holdindgs, Inc., priority 1999, dated 2005):

Target: FKBP-12 peptidyl-prolyl isomerase (rotamase) (Homo sapiens, UniProt P62942)
Assay: Ki test procedure: inhibition of FKBP peptidyl-prolyl isomerase (rotamase) activity, chymotrypsin-coupled assay
Format: biochemical
Conditions: apparent Ki, substrate N-succinyl-Ala-Ala-Pro-Phe-p-nitroanilide
From the text: The binding to FBKP12 and inhibition of the peptidyl-prolyl isomerase (rotamase) activity of the compounds used in the inventive methods and pharmaceutical compositions can be evaluated by known methods described in the literature (Harding et al., Nature, 1989, 341:758-760; Holt et al. J. Am. Chem. Soc., 115:9923-9938). These values are obtained as apparent Ki's and are presented for representative compounds in TABLE III.
The cis-trans isomerization of an alanine-proline bond in a model substrate, N-succinyl-Ala-Ala-Pro-Phe-p-nitroanilide, is monitored spectrophotometrically in a chymotrypsin-coupled assay, which releases para-nitroanilide from the trans form of the substrate. The inhibition of this reaction caused by the addition of different concentrations of inhibitor is determined, and the data is analyzed as a change in first-order rate constant as a function of inhibitor concentration to yield the apparent K1 values. […]
The absorbance at 390 nm versus time is monitored for 90 seconds using a spectrophotometer and the rate constants are determined from the absorbance versus time data files.

Chain of FKBP-12 peptidyl-prolyl isomerase (rotamase) (P62942 whole entry): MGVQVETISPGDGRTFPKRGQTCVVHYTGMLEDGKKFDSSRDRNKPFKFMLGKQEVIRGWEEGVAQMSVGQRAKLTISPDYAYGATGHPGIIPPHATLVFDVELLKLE

Question: With O=C1[C@@H]2CCCN2C(=O)N1c1cccc2ccccc12 [Compound 1, (7aS)-2-(1-Naphthyl)perhydropyrrolo[1,2-c]imidazole-1,3-dione] as the compound, how does the Ki read?
Answer: > 10 µM

Question: With CCc1ccccc1N1C(=O)C2CCCN2C1=O (stereo not shown) [Compound 6, 2-(2-ethyl)phenyl-2,5,6,7,7a-pentahydro-2-azapyrrolizin-1,3-dione] as the compound, how does the Ki read?
Answer: > 5 µM

System: dopaminergic neurons (MPTP lesioning)
Assay: MPTP model of Parkinson's Disease in mice, concurrent dosing paradigm
Format: in vivo
Conditions: 10 mg/kg p.o. with MPTP (30 mg/kg i.p.) for 5 days plus 5 further days; male CD1 mice; anti-tyrosine hydroxylase immunostaining at 18 days
Method: MPTP lesioning of dopaminergic neurons in mice was used as an animal model of Parkinson's Disease. Four week old male CD1 white mice were dosed i.p. with 30 mg/kg of MPTP for 5 days. Inventive compounds (4 mg/kg), or vehicle, were administered s.c. along with the MPTP for 5 days, as well as for an additional 5 days following cessation of MPTP treatment (Table IV). Inventive compounds (10 mg/kg), or vehicle, were also administered p.o. along with the MPTP for 5 days, as well as for an additional 5 days following cessation of MPTP treatment (Table V). At 18 days following MPTP treatment, the animals were sacrificed and the striata were dissected and homogenized. Immunostaining was performed on saggital and coronal brain sections using anti-tyrosine hydoxylase Ig to quantitate survival and recovery of dopaminergic neurons. In animals treated with MPTP and vehicle, a substantial loss of functional dopaminergic terminals was observed as compared to non-lesioned animals. In another protocol, test compounds were administered only subsequent to MPTP-induced lesioning. Thus, after animals were treated with MPTP for 5 days, an additional 3 days passed before beginning oral drug treatment on day 8. Animals were treated with inventive compounds (0.4 mg/kg), administered orally, once a day for 5 days total. On day 18, the animals were sacrificed and analyzed as described above. Tables IV and V present the percent recovery of dopaminergic neurons in the first (concurrent dosing) paradigms in animals receiving hydantoin derivative compounds.
Tables IV and V, below, show the remarkable neuroregenerative effects of the inventive hydantoin derivative compounds illustrating the neurotrophic capability of these compounds as a class showing that lesioned animals receiving the hydantoin derivative compounds provide a remarkable recovery of TH-stained dopaminergic neurons.

Question: Which “% Recovery of dopaminergic neurons” value does the source give for O=C1[C@@H]2CCCN2C(=O)N1c1ccccc1-c1ccccc1 [Compound 2, (7aS)-2-(2′-Phenyl)phenylperhydropyrrolo[1,2-c]imidazole-1,3-dione] here?
Answer: 38.40%

Same assay, conditions: Mus musculus, Neuron, po, 432 h; 10 mg/kg p.o. with MPTP (30 mg/kg i.p.) for 5 days plus 5 further days; male CD1 mice; anti-tyrosine hydroxylase immunostaining at 18 days

Question: Which % recovery of dopaminergic neurons at 10 mg/kg does the source give for O=C1C2CCCCN2C(=S)N1CCCc1ccccc1 (stereo not shown) [Compound 43, 2-(3-phenylpropyl)-3-thioxo-2,5,6,7,8,8a-hexahydro-2-azaindolizin-1-one] here?
Answer: 40.1%

Question: O=C1C2CCCN2C(=S)N1Cc1ccccc1 (stereo not shown) [Compound 4, 2-benzyl-3-thioxo-2,5,6,7,7a-pentahydro-2-azapyrrolizin-1-one] was tested. Which % recovery of dopaminergic neurons at 10 mg/kg did it give?
Answer: 49.3%

Question: For O=C1C2CCCCN2C(=O)N1c1ccccc1 (stereo not shown) [Compound 72, 2-phenyl-2,5,6,7,8,8a-hexahydro-2-azaindolizine-1,3-dione], which % recovery of dopaminergic neurons at 10 mg/kg is on record?
Answer: 37.2%

Question: How did the % recovery of dopaminergic neurons at 10 mg/kg turn out when O=C1[C@@H]2CCCN2C(=O)N1c1ccc(C(F)(F)F)cc1 [Compound 3, (7aS)-2-(4-(Trifluoromethyl)phenyl)perhydropyrrolo[1,2-c]imidazole-1,3-dione] was run?
Answer: 78.8%

Question: CCCCCCCCN1C(=O)C2CCCCN2C1=O (stereo not shown) [Compound 42, 2-Octyl-2,5,6,7,8,8a-hexahydro-2-azaindolizine-1,3-dione] was tested. Which % recovery of dopaminergic neurons at 10 mg/kg did it give?
Answer: 17.4%

Question: O=C1C2CCCCN2C(=S)N1CCc1ccccc1 (stereo not shown) [Compound 40, 2-(2-phenylethyl)-3-thioxo-2,5,6,7,8,8a-hexahydro-2-azaindolizin-1-one] was tested. Which % recovery of dopaminergic neurons at 10 mg/kg did it give?
Answer: 11%

Question: With O=C1C2CCCCN2C(=O)N1Cc1ccccc1 (stereo not shown) [Compound 38, 2-Benzyl-2,5,6,7,8,8a-hexahydro-2-azaindolizine-1,3-dione] as the compound, how does the % recovery of dopaminergic neurons at 10 mg/kg read?
Answer: 31.4%

Question: For O=C1C2CCCN2C(=S)N1CCCc1ccccc1 (stereo not shown) [Compound 7, 2-(3-phenylpropyl)-3-thioxo-2,5,6,7,7a-pentahydro-2-azapyrrolizin-1-one], which % recovery of dopaminergic neurons at 10 mg/kg is on record?
Answer: 37.5%

Question: Which % recovery of dopaminergic neurons at 10 mg/kg does the source give for CCCCCCCN1C(=O)C2CCCCN2C1=O (stereo not shown) [Compound 41, 2-Heptyl-2,5,6,7,8,8a-hexahydro-2-azaindolizine-1,3-dione] here?
Answer: 8.8%

Question: How did the % recovery of dopaminergic neurons at 10 mg/kg turn out when CCCCN1C(=O)C2CCCCN2C1=O (stereo not shown) [Compound 74, 2-butyl-2,5,6,7,8,8a-hexahydro-2-azaindolizine-1,3-dione] was run?
Answer: 46.4%

Question: Which % recovery of dopaminergic neurons at 10 mg/kg does the source give for O=C1C2CCCCN2C(=S)N1Cc1ccccc1 (stereo not shown) [Compound 39, 2-benzyl-3-thioxo-2,5,6,7,8,8a-hexahydro-2-azaindolizin-1-one] here?
Answer: 11.2%

Question: How did the % recovery of dopaminergic neurons at 10 mg/kg turn out when O=C1C2CCCN2C(=S)N1CCc1ccccc1 (stereo not shown) [Compound 8, 2-(2-phenylethyl)-3-thioxo-2,5,6,7,7a-pentahydro-2-azapyrrolizin-1-one] was run?
Answer: 42.5%

Same assay, conditions: Mus musculus, Neuron, sc, 432 h; 4 mg/kg s.c. with MPTP (30 mg/kg i.p.) for 5 days plus 5 further days; male CD1 mice; anti-tyrosine hydroxylase immunostaining at 18 days

Question: For O=C1[C@@H]2CCCN2C(=O)N1c1cccc2ccccc12 [Compound 1, (7aS)-2-(1-Naphthyl)perhydropyrrolo[1,2-c]imidazole-1,3-dione], which % recovery of dopaminergic neurons at 4 mg/kg is on record?
Answer: 32.2%
